Test results from the NIST ThermoML archive (doi:10.1016/j.jct.2012.01.007).
Values joined by “and” are separate entries in the source; they are usually repeats but may differ in a detail not shown here. Identical values can stand only once. ± gives the expanded uncertainty stated by the source.

Assay: osmotic coefficient (dimensionless); mn = molality of the nth substance listed, in mol/kg
Settings: 298.15 K, Liquid, isopiestic method

CCCC[n+]1ccc(N(C)C)cc1.F[B-](F)(F)F [4-(dimethylamino)-1-butylpyridinium tetrafluoroborate] + CCO showed an osmotic coefficient (m1 = 0) of 1 ± 0.15, an osmotic coefficient (m1 = 0.3225) of 0.606 ± 0.096 and an osmotic coefficient (m1 = 0.333) of 0.526 ± 0.085. The osmotic coefficient (m1 = 0.3357) was 0.6 ± 0.095, the osmotic coefficient (m1 = 0.3459) was 0.506 ± 0.083 and the osmotic coefficient (m1 = 0.4422) was 0.468 ± 0.073. For the same compound, the osmotic coefficient (m1 = 0.4806) was 0.429 and 0.445, the osmotic coefficient (m1 = 0.4942) was 0.418 ± 0.067 and the osmotic coefficient (m1 = 0.5101) was 0.42 and 0.404. The osmotic coefficient (m1 = 0.6548) was 0.383 ± 0.061, the osmotic coefficient (m1 = 0.7459) was 0.394 ± 0.063 and the osmotic coefficient (m1 = 0.8064) was 0.365 ± 0.059. For the same compound, the osmotic coefficient (m1 = 0.9658) was 0.343 ± 0.057, the osmotic coefficient (m1 = 1.075) was 0.327 ± 0.055 and the osmotic coefficient (m1 = 1.154) was 0.339 ± 0.056. The osmotic coefficient (m1 = 1.195) was 0.318 ± 0.053, the osmotic coefficient (m1 = 1.289) was 0.325 ± 0.054 and the osmotic coefficient (m1 = 1.393) was 0.322 ± 0.054. The osmotic coefficient (m1 = 1.613) was 0.321 ± 0.054, the osmotic coefficient (m1 = 1.945) was 0.304 ± 0.052 and the osmotic coefficient (m1 = 2.716) was 0.316 ± 0.053. It also gave an osmotic coefficient (m1 = 3.676) of 0.336 ± 0.056, an osmotic coefficient (m1 = 3.763) of 0.326 ± 0.055 and an osmotic coefficient (m1 = 5.468) of 0.283 ± 0.05. For the same compound, the osmotic coefficient (m1 = 7.248) was 0.218 ± 0.043.
In the case of CCCCCC[n+]1ccc(N(C)C)cc1.F[B-](F)(F)F [4-(dimethylamino)-1-hexylpyridinium tetrafluoroborate] + CCO, the osmotic coefficient (m1 = 0) is reported as 0.999 ± 0.15, the osmotic coefficient (m1 = 0.3863) is reported as 0.523 ± 0.081 and the osmotic coefficient (m1 = 0.4915) is reported as 0.435 ± 0.068. The osmotic coefficient (m1 = 0.6139) was 0.417 ± 0.066, the osmotic coefficient (m1 = 0.7149) was 0.447 ± 0.07 and the osmotic coefficient (m1 = 0.7716) was 0.429 ± 0.068. For the same compound, the osmotic coefficient (m1 = 1.225) was 0.413 and 0.431, the osmotic coefficient (m1 = 1.39) was 0.375 ± 0.06 and the osmotic coefficient (m1 = 1.495) was 0.39 ± 0.062. For the same compound, the osmotic coefficient (m1 = 1.778) was 0.35 ± 0.11, the osmotic coefficient (m1 = 1.799) was 0.409 ± 0.12 and the osmotic coefficient (m1 = 2.283) was 0.376 ± 0.061. The osmotic coefficient (m1 = 2.753) was 0.378 ± 0.061, the osmotic coefficient (m1 = 3.718) was 0.351 ± 0.057 and the osmotic coefficient (m1 = 4.128) was 0.37 ± 0.06. For the same compound, the osmotic coefficient (m1 = 5.581) was 0.384 ± 0.062.
Work on CCCCC[n+]1ccc(N(C)C)cc1.F[B-](F)(F)F [4-(dimethylamino)-1-pentylpyridinium tetrafluoroborate] + CCO yielded an osmotic coefficient (m1 = 0) of 0.999 ± 0.15, an osmotic coefficient (m1 = 0.4148) of 0.513 ± 0.079 and an osmotic coefficient (m1 = 0.4808) of 0.455 ± 0.071. The osmotic coefficient (m1 = 0.5469) was 0.468 ± 0.073, the osmotic coefficient (m1 = 0.568) was 0.397 ± 0.074 and the osmotic coefficient (m1 = 0.6869) was 0.376 ± 0.061. It also gave an osmotic coefficient (m1 = 0.8468) of 0.359 ± 0.058, an osmotic coefficient (m1 = 0.9582) of 0.335 ± 0.055 and an osmotic coefficient (m1 = 1.291) of 0.38 ± 0.061. It also gave an osmotic coefficient (m1 = 1.757) of 0.331 ± 0.055, an osmotic coefficient (m1 = 1.899) of 0.327 ± 0.055 and an osmotic coefficient (m1 = 2.515) of 0.327 ± 0.055. For the same compound, the osmotic coefficient (m1 = 4.304) was 0.283 ± 0.049, the osmotic coefficient (m1 = 5.313) was 0.288 ± 0.05 and the osmotic coefficient (m1 = 7.334) was 0.301 ± 0.051.
